Measured values as given in patent publication US11504349B2, “Composition for preventing or treating TNF-related diseases, containing novel derivative as active ingredient, and method for inhibiting TNF activity by using same” (ILAB, priority 2017, dated 2022).

Experiments:
TNF [1] = target: T1, TNF (Homo sapiens, UniProt P01375); assay: TNF-neutralization bioassay: TNF-induced cell death of LM cells (MTT); type: cell-based; details: for inhibition at 50 µM: compound 50 μM, TNF 20 ng/ml, actinomycin D, LM cells, 24 hours
Experimental: (§1) First, the addition of recombinant TNF to mouse fibroblast LM cells induces cell death, and thus, by using the same, the TNF-neutralization bioassay was constructed. In other words, LM cells were pretreated with TNF (20 ng/ml) and the compounds synthesized in the above examples at various concentrations (5×10^4 cells/well), and a sensitizer actinomycin D ([…]) was added, and cultured in a CO2 incubator for 24 hours, and then the MTT assay was carried out. At this time, 10 μl of MTT (5 mg/ml stock) was added, reacted for 4 hours, and then dissolved in DMSO to measure the absorbance at 570 nm. First, the TNF cell death inhibition/neutralization action of TNF-target expected compounds at single concentration (50 or 10 μM) was measured. Second, IC50 values were determined by treating with the compounds having an excellent effect at different concentrations. The % inhibition of TNF was calculated using the following formula: % inhibition of TNF=(OD value of a group treated with TNF and compound−OD value of TNF treated group/(OD value of TNF untreated group−OD value of TNF treated group)×100.
(§2) IC50 values were statistically analyzed using Prism 6 (GraphPad) (IC50: 50% inhibitory concentration, CC50: 50% cytotoxic concentration).

[2] = Cytotoxicity (CC50) in LM cells, MTT assay; type: cell-based; details: mouse, LM cells (mouse fibroblasts); 50% cytotoxic concentration
Experimental: as §1, §2

biotinylated TNF = target: T2, biotinylated TNF (Homo sapiens, UniProt P01375); assay: Flow cytometry: binding of biotinylated TNF to Raw 264.7 cells; type: cell-based, mouse; details: compound 800, 200, 5 μM, FACS, FIG. 3a
T2 construct: purchased R&D Systems NFTAO
Experimental: First, macrophage Raw 264.7 cells were prepared (4×10^6 cells/ml), and the biotinylated TNF alone or in combination with the 4-benzopyranone derivative compound (800, 200, 5 μM) was added to the cells and reacted (30 min, 4° C.). 10 μl of avidin-FITC reagent was then added and reacted in the dark (30 min, 4° C.). After washing with RDF1 buffer, FACS analysis was carried out (BD Canto). Human TNF-alpha Biotinylated Fluorokine Flow Cytometry Kit (Cat #: NFTAO) of R&D Systems was used in the experiment.

TNF [3] = target: T1, TNF; assay: SPR (Biacore T200) direct binding to immobilized TNF; details: FIG. 2d
Experimental: The binding kinetics of TNF and 4-benzopyranone derivative compounds was measured by Surface Plasmon Resonance (SPR) method. First, based on the results of pH scouting (10 mM acetate buffer, pH 4.0, 4.5, 5.0, and 5.5), the appropriate buffer pH was determined, and then the recombinant TNF was immobilized on the CM5 chip (4000-5000 RU). In order to correct an effect of DMSO, a solvent correction standard was then prepared, and DMSO was added to the HBS-EP+ buffer (GE) in an amount of 5%. Then, the 4-benzopyranone derivative compounds were prepared depending on concentration, flowed into the chip (20 μl/min, 500 s), and dissolved (500 s), and the results of sensorgram were analyzed by a dedicated program to determine the affinity value (KD). At this time, the running buffer was HBS-EP+ buffer (GE), the regeneration buffer was 10 mM glycine (pH 2.5), and Biacore T200 (GE) was used as an analyzer.

DBA/1 mice = assay: CIA mouse model, alone and in combination with methotrexate; type: in vivo; details: Example 61 10 mpk PO once a day, MTX 5 mpk three times a week, to Day 73
From the text: A 1:1 mixture of collagen type 2 and CFA was intradermally (ID) injected into the base of the tail of DBA/1 mice. Two weeks after the primary immunization, a 1:1 mixture of bovine collagen type 2 and IFA (incomplete Freund's adjuvant) was intradermally (ID) injected into the base of the tail to prepare the rheumatoid arthritis animal model. The thus prepared mice were divided into […], i.e., a positive control group (MTX 5 mpk treated group: 10 mice), a group treated with the compound of Example 61 alone (10 mpk treated group: 9 mice), a group treated with MTX and the compound of Example 61 (each 5 mpk and 10 mpk; 9 mice), and a group treated with vehicle (a group treated with 0.05% CMC diluted in distilled water; 15 mice). […]
The severity of arthritis was determined by ascertaining the mean score of arthritis according to the following standard score in the forefoot and hindfoot twice a week from Day 0 to Day 73 after the primary immunization: 0=normal foot, 1=inflammation and swelling of one toe, 2=inflammation and swelling of more than one toe, but not all of the toes have inflammation and swelling, or weak swelling of all toes, 3=inflammation and swelling of all toes, and 4=severe inflammation and swelling or occlusion of foot.

T1 sequence (P01375 77-233 limits assumed): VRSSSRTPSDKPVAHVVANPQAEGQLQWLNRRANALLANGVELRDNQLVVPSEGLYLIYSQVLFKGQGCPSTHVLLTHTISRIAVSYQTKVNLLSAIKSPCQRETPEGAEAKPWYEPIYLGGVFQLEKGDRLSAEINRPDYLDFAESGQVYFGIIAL
T2 sequence (P01375 77-233 limits assumed): as above

Row | melting point [°C] | binding to TNF (TNF [3]) | SMILES | inhibition at 50 µM (TNF [1]) [%] | IC50 (TNF [1]; inhibition of TNF-induced LM cell death) [µM] | CC50 at 24 h [2] [µM] | inhibitory activity against TNF-cell binding (biotinylated TNF) | therapeutic effect on arthritis (mean arthritis score) (DBA/1 mice)
1 | 216 to 218 | – | O=C(O)c1c(-c2cc(F)cc(F)c2)oc2ccc(Br)cc2c1=O [Example 51, 2-(3,5-difluorophenyl)-3-carboxy-6-bromo-(4H)-4-benzopyranone] | 100 | 4.5 | 13 | moderate inhibitory activity | –
2 | 208 to 210 | did not bind to TNF | Cc1cccc(-c2oc3ccc(Br)cc3c(=O)c2C(=O)O)c1 [Example 30, 2-(3-methylphenyl)-3-carboxy-6-bromo-(4H)-4-benzopyranone] | 7.4 | – | – | did not inhibit the cell binding of TNF at all | –
3 | – | – | CN(Cc1cnc2nc(N)nc(N)c2n1)c1ccc(C(=O)N[C@@H](CCC(=O)O)C(=O)O)cc1 [MTX, methotrexate, reference compound] | – | – | – | – | therapeutic effect on arthritis was shown
